US20220275403A1, “Methods And Compositions For Enhancing AAV-Mediated Homologous Recombination Using Ribonucleotide Reductase Inhibitors” (The Board of Trustees of the Leland Stanford Junior …, priority 2019, published 2022)
“Also recorded” adds a separate entry of the source.

Tests used:
P Ser139 γH2AX = P Ser139 γH2AX DNA damage response in mouse liver (IHC, Western blot)
hepatocytes = test: BrdU incorporation in mouse liver (hepatocyte proliferation); assay type: in vivo
[1] = tested on: genomic albumin (Alb) locus, mouse liver; test: In vivo gene targeting with rAAV8 Alb-P2A-hF9 vector, serum hF9 by ELISA; conditions: for serum hF9 levels: 2 months after AAV injection; for hF9 expression (plasma/serum hF9 levels): mice, drug ip three sequential days, rAAV8 Alb/F9 on first day, vs controls; for serum hF9 protein levels: vs vehicle
Procedure: FIG. 5 Depicts results from in vivo delivery of AAV-based HR in mice. A schematic depicts the injection schedule. rAAV was used to deliver a donor sequence encoding human coagulation factor IX (hF9) into the genomic Albumin (Alb) locus. Plasma hF9 expression in the mouse liver was measured as an assay to detect integration and expression of the integrated donor sequence. […] Experimental plan and time schedule: each drug was given three sequential days by ip injection and AAV was injected at first day with 1e11 vector genome (vg)/g body weight. Serum samples were collected at each time point and hF9 levels were measured by ELISA. Body weight of each mouse were measured to monitor the toxic effect of each drug.
The efficacy of RNR inhibitors in vivo was tested using an AAV8 vector that incorporates a Alb/F9 targeting sequence. The “Alb/F9” targeting vector was an AAV that included a donor DNA having a nucleotide sequence of interest flanked by homology arms that facilitated integration of the sequence of interest into the genomic albumin (Alb) locus. The nucleotide sequence of interest in this case was a 2A peptide sequence 5′ of a sequence encoding human coagulation factor IX (hF9). Thus, once integrated into the genomic locus, the 2A peptide sequence was present between the endogenous albumin coding sequence and the introduced/integrated hF9 coding sequence such that expression of hF9 mRNA was under the control of the albumin promoter but translation of the transcript led to two separate proteins (albumin and hF9). […] Thus, the lack of efficacy observed based on hF9 liver expression (see FIG. 5) is likely due to low/substantially no HU in the liver (FIG. 6). Given the in vitro HU results and the in vitro and in vivo fludarabine results—in addition to the gemcitabine results of FIG. 7, it is likely and expected that AAV-based HR is enhanced in vivo by HU in organs/tissues other than the liver (e.g., kidney, spleen, heart, lung, testes, brain, etc.).
B6 mice were received tail vain injections of rAAV8 packaging each vector at the designated dose and were bled at indicated time points. Body weight of mice were measured using Scout pro portable scale (Ohaus) at indicated time points. Serum samples were obtained by centrifuge at 10,000 rpm for 10 minutes and used for ELISA assay of hF9. Hydroxyurea or fludarabine was resuspended in PBS and were injected intraperitoneally with indicated dose/regimen. For BrdU labeling of proliferating mice hepatocytes, BrdU was resuspended in PBS and were intraperitoneally injected for indicated time periods at 200 mg/kg per day for 3 days or 7 days. Diethylnitrosamine solution was prepared using saline and was also intraperitoneally injected for 3 days at 10 or 30 mg/kg. At the end of experiments, mice were anesthetized with isoflurane and perfused transcardially with PBS and then liver tissues were quickly harvested and cut into several pieces. The tissues for mRNA extractions were immediately submerged in RNAlater solution (Sigma) and stored at 4° C. until use. For gDNA or protein extraction, tissues were snap-frozen in liquid nitrogen and stored at −80° C. until use.
(§1) Mice serum samples were used to quantify hF9 protein expression levels. ELISA for hF9 was performed as previously described with the following antibodies: mouse anti-hF9 IgG primary antibody at 1:1,000 (Sigma Cat#F2645), and polyclonal goat anti-hF9 peroxidase-conjugated IgG secondary antibody at 1:4,000 (Enzyme Research Cat#GAFIX-APHRP).

hepatocytes of mice = test: RNAscope in situ hybridization of hF9 mRNA in liver sections; assay type: in vivo; conditions: vs PBS treated mouse
mouse liver = test: qPCR of liver DNA and mRNA after Alb-P2A-hF9 vector injection
[2] = tested on: Albumin gene locus, mouse hepatocytes; test: CRISPR/Cas9-mediated gene editing in vivo, SaCas9-sgRNA8 plus rAAV8-Alb-P2A-GFP, GFP staining of liver; conditions: vs PBS, Alb-P2A-GFP 6.0×10^12 or 3.0×10^13 vg/kg, 2 weeks after AAV injection
Huh7 cells = test: AAV-HR efficiency, AAV-DJ GAPDH/GFP targeting vector, GFP positive cells by FACS; assay type: cell-based, human; conditions: for HR efficiency (GFP positive population by FACS analysis) / AAV-HR efficiency (GFP positive fraction): Huh7; for HR efficiency (GFP positive population by FACS analysis): AAV-DJ GAPDH targeting vector; for AAV-HR efficiency (GFP positive fraction): FIG. 7, drug pretreatment 16 hours, washed out, FACS 14 days after infection
murine ApoE locus = test: In vivo gene targeting with rAAV8-ApoE-P2A-hF9 vector, serum hF9; design: species or system mouse; conditions: vs PBS
Procedure: Serum was collected at various times across a nearly 60-day time course and hF9 protein levels were determined. Error bars represent s.e.; n=4
Also examined was whether fludarabine-mediated enhancement of gene targeting was Albumin specific—this was done by designing a vector targeting an alternative genomic locus, ApoE. ApoE is highly and specifically expressed in hepatocytes, similar to Albumin. When 1.0×10^11 vg/mouse of this vector (ApoE-P2A-hF9) was injected with fludarabine treatment, a significant increase in hF9 expression compared to PBS-injected mice was observed (FIG. 12). The fold-increase (3.6-fold at day 54) was similar to findings targeting the Albumin locus.
as §1

[3] = Body weight of treated mice; conditions: for body weight: mice, drug ip three sequential days plus rAAV8 Alb/F9, relative to controls

Nc1nc(F)nc2c1ncn2[C@@H]1O[C@H](CO)[C@@H](O)[C@@H]1O [Fludarabine, (2R,3S,4S,5R)-2-(6-amino-2-fluoropurin-9-yl)-5-(hydroxymethyl)oxolane-3,4-diol]
γH2AX in liver tissue lysates (Western blotting) (P Ser139 γH2AX; acute phase of fludarabine treatment): strong detection of γH2AX
γH2AX foci in liver (IHC) (P Ser139 γH2AX; three-day washout after fludarabine, vs immediately proximal to treatment): significantly reduced
γH2AX foci in liver (IHC) (P Ser139 γH2AX; time proximate to fludarabine treatment): widespread nuclear localized γH2AX foci
BrdU incorporation in liver (hepatocytes; BrdU for three days in washout phase after fludarabine, vs acute phase): significantly greater
BrdU labeled nuclei in liver sections (hepatocytes; BrdU given during fludarabine 125 mg/kg three times per day for three days (acute phase)): nearly absent
serum hF9 levels ([1]; Flu 125 mg/kg i.p. 3 times per day for five days, vs PBS): 6.4 fold
hF9 expression / gene targeting efficiency with delayed dose ([1]; fludarabine 125 mg/kg i.p. three times per day on days 28-30 after rAAV, serum day 54): little to no effect; also recorded: failed to increase the efficiency of gene targeting
hF9 expression (plasma/serum hF9 levels) [1]: increased hF9 expression
hF9 expression (plasma/serum hF9 levels) ([1]; listed as fludarabine): significantly and consistently increased serum hF9 levels
serum hF9 levels ([1]; single administration (1 day) of fludarabine): about 2 fold
frequency of hF9 mRNA positive cells (hepatocytes of mice): increased the number of hF9 positive hepatocytes
frequency of hF9 mRNA positive cells (hepatocytes of mice; listed as fludarabine): clearly more frequent
endogenous albumin expression (mouse liver; liver mRNA, fludarabine treatment): not changed
on-target integrated Alb-P2A-hF9 fusion mRNA expression (mouse liver; liver, vs PBS, normalized to Actb): 5.1 fold
total hF9 mRNA (mouse liver; liver, vs controls, vector-internal primer set): 4.4 fold
number of GFP positive hepatocytes [2]: increased the efficiency of CRISPR/Cas9-mediated gene editing
number of GFP positive hepatocytes ([2]; listed as fludarabine): increase of the number of GFP positive hepatocytes
AAV-HR efficiency in cultured cells (Huh7 cells; FIG. 4, Hun7 cells): significantly enhanced AAV-HR efficiency
increase in HR efficiency (Huh7 cells; FIG. 4, vs no RNR inhibitor): 3.5 fold
HR efficiency (GFP positive population by FACS analysis) (Huh7 cells): reproducibly increased HR efficiency
fold-increase in hF9 expression (murine ApoE locus; ApoE-P2A-hF9 1.0×10^11 vg/mouse, day 54): 3.6 fold
efficiency of gene targeting at the ApoE locus (serum hF9) (murine ApoE locus; nearly 60-day time course): increased the efficiency of gene targeting at the ApoE locus
body weight [3]: without any body weight change
body weight ([3]; listed as fludarabine): without any body weight loss

NC(=O)NO [Hydroxyurea, hydroxyurea]
hF9 expression (plasma/serum hF9 levels) [1]: did not exhibit enhancement of hF9 expression

CCN(CC)N=O [DEN, diethylnitrosamine]
γH2AX staining of liver sections (IHC) (P Ser139 γH2AX; DEN-treated mice, positive control): intense nuclear staining of γH2AX
serum hF9 protein levels ([1]; DEN 10 mg/kg, not statistically significant): ~1.5 fold
serum hF9 protein levels ([1]; DEN 30 mg/kg, three weeks post rAAV injection): about 3.6 fold
endogenous albumin mRNA expression (mouse liver; DEN 10 or 30 mg/kg, liver): nearly unchanged
total hF9 mRNA expression (mouse liver; DEN high dose (30 mg/kg), liver, vs vehicle): 3.9 fold
total hF9 mRNA expression (mouse liver; DEN low dose (10 mg/kg), liver, vs vehicle): 2 fold
on-target HR derived fusion Alb-P2A-hF9 mRNA (mouse liver; DEN, both dose groups, liver, vs vehicle): about 2 fold
body weight gains ([3]; DEN 10 or 30 mg/kg i.p. once per day for three days, vs vehicle, dose-dependent): decreased body weight gains

Nc1ccn([C@@H]2O[C@H](CO)[C@@H](O)C2(F)F)c(=O)n1 [Gemcitabine]
AAV-HR efficiency (GFP positive fraction) (Huh7 cells): enhanced AAV-HR efficiency
HR efficiency (GFP positive population by FACS analysis) (Huh7 cells): reproducibly increased HR efficiency

COc1cc([C@@H]2c3cc4c(cc3[C@@H](O[C@@H]3O[C@@H]5CO[C@@H](c6cccs6)O[C@H]5[C@H](O)[C@H]3O)[C@H]3COC(=O)[C@H]23)OCO4)cc(OC)c1O [Teniposide, teniposide]
AAV-HR efficiency (GFP positive fraction) (Huh7 cells): no effect
HR efficiency (GFP positive population by FACS analysis) (Huh7 cells): no effect
